Measured values from publication PMC7377239, “Cardiovascular Effects of Polychlorinated Biphenyls and Their Major Metabolites” (Environmental Health Perspectives, 2020).
Where two headings read alike, the source gives them in different places.

Tested on: iCell cardiomyocytes (human iPSC-derived cardiomyocytes)
Assay: High-content imaging of cytotoxicity and mitochondrial integrity in iPSC-CMs
Type: cell-based
Conditions: Homo sapiens, Cardiomyocyte; for viability at 0.01 µM / activity at 0.01 µM / viability at 0.1 µM / activity at 0.1 µM / viability at 1 µM / activity at 1 µM / viability at 10 µM / activity at 10 µM / viability at 100 µM / activity at 100 µM: 0.00 µM = 100.00; for viability at 0.1 µM / activity at 0.1 µM: 0.10 µM
Outline: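 Cardiomyocytes grown on gelatinized 384-well plates received fresh medium on the experiment day and were then exposed to chemicals at 0.01–100μM. Nuclei and mitochondria were labeled with Hoechst 33342 and MitoTracker™ Orange, then fixed, and imaged on an ImageXpress® Micro Confocal system. Four-parameter logistic concentration–response fits in R, with a one-standard-deviation vehicle cutoff, gave point-of-departure values.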

[1] = 1.5 h, 90min, read-out: cm.cam.90min
[2] = 1.5 h, 90min, read-out: cm.mii.90min
[3] = 1.5 h, 90min, read-out: cm.mito.90min
[4] = 1.5 h, 90min, read-out: cm.tc.90min
[5] = 24 h, 24hrs, read-out: cm.cam.24hrs
[6] = 24 h, 24hrs, read-out: cm.mii.24hrs
[7] = 24 h, 24hrs, read-out: cm.mito.24hrs
[8] = 24 h, 24hrs, read-out: cm.tc.24hrs

SMILES: Clc1cc(Cl)c(-c2cc(Cl)c(Cl)cc2Cl)cc1Cl [PCB153]
- viability at 0.01 µM [1]: 98.3%
- activity at 0.01 µM [2]: 112%
- activity at 0.01 µM [3]: 98.2%
- viability at 0.01 µM [4]: 98.1%
- viability at 0.1 µM [1]: 96.8%
- activity at 0.1 µM [2]: 109%
- activity at 0.1 µM [3]: 96.6%
- viability at 0.1 µM [4]: 96.6%
- viability at 1 µM [1]: 102%
- activity at 1 µM [2]: 112%
- activity at 1 µM [3]: 102%
- viability at 1 µM [4]: 102%
- viability at 10 µM [1]: 99.4%
- activity at 10 µM [2]: 102%
- activity at 10 µM [3]: 99.5%
- viability at 10 µM [4]: 99.5%
- viability at 100 µM [1]: 1.35%
- activity at 100 µM [2]: 91%
- activity at 100 µM [3]: 1.22%
- viability at 100 µM [4]: 1.5%
- minimal effective concentration (1.5 h, 90min, read-out: cm.cam.90min POD): 20.6 µM
- minimal effective concentration (1.5 h, 90min, read-out: cm.mii.90min POD): 100 µM
- minimal effective concentration (1.5 h, 90min, read-out: cm.mito.90min POD): 19.8 µM
- minimal effective concentration (1.5 h, 90min, read-out: cm.tc.90min POD): 23.2 µM
- viability at 0.01 µM [5]: 94.6%
- activity at 0.01 µM [6]: 88.6%
- activity at 0.01 µM [7]: 94.7%
- viability at 0.01 µM [8]: 95.8%
- viability at 0.1 µM [5]: 98.2%
- activity at 0.1 µM [6]: 109%
- activity at 0.1 µM [7]: 99.3%
- viability at 0.1 µM [8]: 98.3%
- viability at 1 µM [5]: 99.7%
- activity at 1 µM [6]: 80.6%
- activity at 1 µM [7]: 100%
- viability at 1 µM [8]: 99.9%
- viability at 10 µM [5]: 96.8%
- activity at 10 µM [6]: 99.6%
- activity at 10 µM [7]: 95.2%
- viability at 10 µM [8]: 96.5%
- viability at 100 µM [5]: 1.91%
- activity at 100 µM [6]: 23.6%
- activity at 100 µM [7]: 0.34%
- viability at 100 µM [8]: 1.92%
- minimal effective concentration (24 h, read-out: cm.cam.24hrs POD): 11.6 µM
- minimal effective concentration (24 h, read-out: cm.mii.24hrs POD): 39.9 µM
- minimal effective concentration (24 h, read-out: cm.mito.24hrs POD): 10.5 µM
- minimal effective concentration (24 h, read-out: cm.tc.24hrs POD): 11.1 µM
